# Assays:
# [1] = system: Alzheimer's animal model; assay: Blood analysis of inflammatory substances (bioplex); assay type: in vivo, mouse; settings: 1 mg/kg twice per week, total 20 times; FIG. 9
# Experimental: [Experimental Method: Blood analysis] The blood was obtained from the mouse by cardiac blood collection or orbital blood collection. For analyzing the inflammatory substance, the obtained blood was left for 2 hours at room temperature and centrifuged, a supernatant was taken, and each inflammatory substance was quantitatively analyzed by using a kit and equipment for bioplex. In order to analyze biochemical and hematopoietic cells, the obtained blood was put in an appropriate tube or container and applied to a biochemical analyzer and a hematology analyzer, respectively, to obtain data. FIG. 9 illustrates a result of analyzing an inflammatory substance in the blood by extracting the blood of the mouse after 1 mg/kg of PBS or sodium taurodeoxycholate is injected to a control mouse and an Alzheimer's mouse twice per week and a total of 20 times.
# [2] = system: Alzheimer's animal model (5×FAD); assay type: in vivo, mouse; settings: 1 mg/kg twice a week, total 20 times
# [3] = system: Alzheimer's animal model (5×FAD); assay: TUNEL staining of apoptotic region in brain tissue; assay type: in vivo, mouse; settings: frontal cortex, FIG. 8
# Experimental: [Experimental Method: Tissue fluorescent staining] A mouse was anesthetized, the limbs were fixed and then the mouse was cut to expose the heart by scissors and tweezers. The upper right atrium was slightly cut by the scissors and punctured, a needle was put in the left ventricle, and PBS was injected and perfused. When the colors of the blood vessel and the organs turned to white, a 4% paraformaldehyde (PFA) solution was replaced and injected until muscle contraction occurred and the soles were hard. […] The cut tissue piece was attached on the slide by using a brush and blocked for preventing a nonspecific antibody binding, and then reacted with a specific antibody (coupled with a fluorescence) to a protein to be reported. […] The photographed image was converted into numeral values by measuring the fluorescent strength for each fluorescence by analysis software.
# The brain tissue of the Alzheimer's model mouse administrated with the drug was extracted and a reduction of the lesion such as an apoptotic lesion in the frontal cortex and the hippocampus area was measured by fluorescent-staining, and the result was illustrated in FIG. 8. The PBS or sodium taurodeoxycholate was administrated in the Alzheimer's mouse and a region damaged by apoptosis in the frontal cortex of the administrated mouse was analyzed by TUNEL staining. […]
# [4] = system: Alzheimer's mouse model (5×FAD); assay: Morris water maze (spatial learning, probe test); assay type: in vivo; settings: 1 mg/kg twice a week, total 20 times
# Experimental: [Experimental Method: Morris Water maze] An acryl-made platform having a diameter of 10 cm was installed in a circular water tank having a size of diameter×height=150 cm×80 cm and a camera was installed at the center of the water tank on the ceiling where the water tank was placed. Around the water tank, a horizontal cue, a vertical grid cue, and a circular object cue were disposed, respectively. For the experimental preparation, water at about 26° C. was filled in the water tank up to a height of about 1 cm from the top of the platform and a white water paint was dissolved.
# At a first experimental day, the mouse was flooded at one position of the prepared water tank and swam for 3 minutes and then induced to move to the platform location by an experimenter's hand after 3 minutes and left for 1 minute on the platform. After 1 minute, the mouse was lifted and covered by both hands and put in a cage again after 1 minute. This process was repeated three times. […] The process was repeated everyday until a difference between mouse groups was decreased. At the final experimental day, the mouse was flooded in the water tank after removing the platform in the water tank and a video for 90 seconds was recorded and then a moving path and the number of platform pass times of the mouse in the water tank, a time latency of the platform location, and the like were analyzed by using analysis software.
# After 1 mg/kg of PBS or sodium taurodeoxycholate was injected to a control mouse and an Alzheimer's mouse (4 per group) twice a week and a total of 20 times, a result of evaluation a spatial learning ability through a water maze experiment was illustrated in FIG. 2. It was verified that a time required when the Alzheimer's mouse found the platform was shortened by administrating the sodium taurodeoxycholate drug.
# After 1 mg/kg of PBS or sodium taurodeoxycholate was injected to a control mouse and an Alzheimer's mouse (more than 10 per group) twice a week and a total of 20 times, a mouse behavior pattern was tracked in the water tank without the platform. A representative image of the result of tracking the mouse movement in the water tank without the platform was illustrated in FIG. 3.
# In the above experiment, the result of measuring the number of times when the mouse crossed the platform location and a time latency at the platform location was illustrated in FIG. 4 and in the sodium taurodeoxycholate administration mouse group, it was verified that the degree of memorizing the platform was high.
# [5] = system: Alzheimer's animal model; assay: Blood analysis of biochemical components (metabolites); assay type: in vivo, mouse; settings: 1 mg/kg twice per week, total 20 times; FIG. 10
# Experimental: [Experimental Method: Blood analysis] The blood was obtained from the mouse by cardiac blood collection or orbital blood collection. For analyzing the inflammatory substance, the obtained blood was left for 2 hours at room temperature and centrifuged, a supernatant was taken, and each inflammatory substance was quantitatively analyzed by using a kit and equipment for bioplex. In order to analyze biochemical and hematopoietic cells, the obtained blood was put in an appropriate tube or container and applied to a biochemical analyzer and a hematology analyzer, respectively, to obtain data. After 1 mg/kg of PBS or sodium taurodeoxycholate is injected to the control mouse and the Alzheimer's mouse twice per week and a total of 20 times, the blood of the mouse was extracted and then the biochemical components in the blood were analyzed. The result was illustrated in FIG. 10.
# [6] = probe test without platform, FIG. 4
compound,measurement,setting,value
C[C@H](CCC(=O)NCCS(=O)(=O)[O-])[C@H]1CC[C@H]2[C@@H]3CC[C@@H]4C[C@H](O)CC[C@]4(C)[C@H]3C[C@H](O)[C@]12C.[Na+] [sodium taurodeoxycholate],amount of CCL3 in the blood,[1],increased
same,expression of iNOS,"[2]; frontal cortex area, FIG. 7",significantly reduced
same,cell distribution of astrocyte,"[2]; frontal cortex, FIGS. 5 and 6",significantly reduced
same,cell distribution of microglia,"[2]; frontal cortex, FIGS. 5 and 6",significantly reduced
same,formation of the amyloid β plague,"[2]; frontal cortex, FIGS. 5 and 6",significantly reduced
same,astrocyte cell distribution,"[2]; hippocampus area, FIGS. 5 and 6",significantly reduced
same,apoptotic region in the brain tissue,[3],reduced
same,number of times of crossing the platform location,[4]; [6],significantly increased
same,time latency at the platform location,[4]; [6],significantly increased
same,time required when the Alzheimer's mouse found the platform,"[4]; water maze, FIG. 2",shortened
same,moving pattern to the position of the platform,"[4]; water tank without platform, FIG. 3",more actively observed
same,degree of memorizing the platform,"[4]; water tank without platform, FIG. 4",high
same,amount of glucose in the blood,[5],decreased

# Source: patent US10071107B2, “Pharmaceutical composition for prevention, treatment or delay of Alzheimer's disease or dementia containing G protein-coupled receptor 19 agent as active ingredient” (SEOUL NATIONAL UNIVERSITY R&DB FOUNDATION, priority 2015, dated 2018)
